Laboratory results published in patent US8568699B2, “Soft anticholinergic zwitterions” (priority 2005, dated 2013).
Structures can show the parent of a compound that is named as a salt. Where two headings read alike, the source gives them in different places.

How the values were obtained:
[1] = biological target: T1, cloned human muscarinic receptor subtype M1 (Homo sapiens, UniProt P11229); assay: Receptor binding, N-[3H]-methyl-scopolamine, M1; settings: numbers in parentheses
T1 sequence (P11229 1-460): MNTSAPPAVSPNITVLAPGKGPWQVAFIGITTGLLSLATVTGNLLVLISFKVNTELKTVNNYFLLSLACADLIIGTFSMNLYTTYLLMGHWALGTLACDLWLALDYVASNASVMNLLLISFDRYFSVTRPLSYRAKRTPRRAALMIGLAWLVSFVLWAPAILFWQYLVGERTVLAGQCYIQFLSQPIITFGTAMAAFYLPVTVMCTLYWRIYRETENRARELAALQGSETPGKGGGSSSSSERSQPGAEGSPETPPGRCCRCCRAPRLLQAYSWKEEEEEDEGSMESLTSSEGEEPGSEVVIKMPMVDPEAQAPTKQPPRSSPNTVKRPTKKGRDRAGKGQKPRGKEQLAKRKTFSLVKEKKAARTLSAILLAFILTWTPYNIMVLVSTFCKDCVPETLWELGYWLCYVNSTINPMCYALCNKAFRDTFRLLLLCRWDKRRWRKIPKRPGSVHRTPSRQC

[2] = biological target: T2, cloned human muscarinic receptor subtype M2 (Homo sapiens, UniProt P08172); assay: Receptor binding, N-[3H]-methyl-scopolamine, M2
T2 sequence (P08172 1-466): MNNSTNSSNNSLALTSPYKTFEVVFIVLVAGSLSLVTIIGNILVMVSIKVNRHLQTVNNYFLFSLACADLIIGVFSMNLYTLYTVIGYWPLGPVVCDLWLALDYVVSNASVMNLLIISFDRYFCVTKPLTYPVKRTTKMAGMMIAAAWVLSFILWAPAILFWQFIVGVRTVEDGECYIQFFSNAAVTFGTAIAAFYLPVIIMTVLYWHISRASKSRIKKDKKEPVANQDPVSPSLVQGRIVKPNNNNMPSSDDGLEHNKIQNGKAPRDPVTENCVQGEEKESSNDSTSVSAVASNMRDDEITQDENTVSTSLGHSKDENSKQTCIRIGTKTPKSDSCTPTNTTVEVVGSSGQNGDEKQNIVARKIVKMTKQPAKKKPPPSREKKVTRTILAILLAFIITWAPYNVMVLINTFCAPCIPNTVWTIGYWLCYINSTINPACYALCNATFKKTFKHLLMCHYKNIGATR

[3] = biological target: T3, cloned human muscarinic receptor subtype M3 (Homo sapiens, UniProt P20309); assay: Receptor binding, N-[3H]-methyl-scopolamine, M3; settings: for M3 Hill slope: numbers in parentheses
T3 construct: purchased Applied Cell Science Inc. (Rockville, Md.)

[4] = biological target: T4, cloned human muscarinic receptor subtype M4 (Homo sapiens, UniProt P08173); assay: Receptor binding, N-[3H]-methyl-scopolamine, M4; settings: numbers in parentheses
T4 construct: purchased Applied Cell Science Inc. (Rockville, Md.)
T4 sequence (P08173 1-479): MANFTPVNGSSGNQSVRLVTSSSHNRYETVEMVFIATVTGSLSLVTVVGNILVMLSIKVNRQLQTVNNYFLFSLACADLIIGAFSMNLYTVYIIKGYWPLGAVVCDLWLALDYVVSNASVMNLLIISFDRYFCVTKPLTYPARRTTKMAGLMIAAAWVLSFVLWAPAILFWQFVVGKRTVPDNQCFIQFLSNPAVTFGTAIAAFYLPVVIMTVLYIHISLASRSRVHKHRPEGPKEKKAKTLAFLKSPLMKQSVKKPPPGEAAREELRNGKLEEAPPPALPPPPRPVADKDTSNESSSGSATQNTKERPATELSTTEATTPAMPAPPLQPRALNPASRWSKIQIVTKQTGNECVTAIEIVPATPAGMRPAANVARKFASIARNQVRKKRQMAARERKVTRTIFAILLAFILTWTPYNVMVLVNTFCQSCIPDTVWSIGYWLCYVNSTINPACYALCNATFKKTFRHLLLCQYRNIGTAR

[5] = biological target: cloned human muscarinic receptors (M1-M4 subtypes); assay: Receptor binding, values stated across subtypes M1-M4
[6] = tested on: electrically stimulated guinea pig tracheal strips; format: cell-based
[7] = tested on: muscarinic M3 cholinoceptors (guinea pig tracheal rings); format: cell-based
[8] = Table 6, numbers in parentheses
[9] = electrically stimulated guinea pig tracheal strips
[10] = time from washout to 20% recovery of cholinergic responses

T3 sequence (P20309 whole entry): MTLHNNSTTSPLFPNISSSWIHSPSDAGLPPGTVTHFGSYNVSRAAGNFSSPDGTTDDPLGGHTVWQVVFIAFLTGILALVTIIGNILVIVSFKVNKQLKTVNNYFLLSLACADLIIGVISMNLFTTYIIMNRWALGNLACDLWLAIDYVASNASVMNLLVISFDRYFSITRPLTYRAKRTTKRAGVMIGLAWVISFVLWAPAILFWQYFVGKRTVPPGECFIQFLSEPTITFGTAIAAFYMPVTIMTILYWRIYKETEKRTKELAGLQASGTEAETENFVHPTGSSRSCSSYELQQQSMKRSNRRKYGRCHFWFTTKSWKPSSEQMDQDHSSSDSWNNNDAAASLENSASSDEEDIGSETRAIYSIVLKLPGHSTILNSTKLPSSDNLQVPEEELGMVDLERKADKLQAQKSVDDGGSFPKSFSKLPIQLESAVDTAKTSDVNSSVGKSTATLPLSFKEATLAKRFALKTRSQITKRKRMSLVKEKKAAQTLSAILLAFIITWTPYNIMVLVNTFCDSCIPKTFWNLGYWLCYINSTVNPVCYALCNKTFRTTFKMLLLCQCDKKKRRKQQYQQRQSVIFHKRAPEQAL

CCOC(=O)C[N+]1(C)CC[C@H](OC(=O)[C@](O)(c2ccccc2)C2CCCC2)C1 (mixture of isomers) [Compound (j), (2R,3′S) 3(2-Cyclopentyl-2-phenyl-2-hydroxyacetoxy)-1-(ethoxycarbonylmethyl)-1-methylpyrrolidinium bromide]
M1 Hill slope ([1]; Table 6): (1.21 ± 0.33)
M2 Hill slope [2, 8]: (1.27 ± 0.11)
M3/M2 muscarinic-receptor subtype-selectivity ([3]; M3 affinity relative to M2 affinity): 2.8±0.8 times
Selectivity M3/M2 (M3/M2 affinity ratio) ([3]; Table 6): 2.8 ± 0.8 times
M3 Hill slope ([3]; Table 6): (1.33 ± 0.16)
M4 Hill slope ([4]; Table 6): (1.15 ± 0.03)
pKi (range over M1-M4) [5]: 8.2-8.7

C[N+]1(C)CCC(OC(=O)C(O)(c2ccccc2)C2CCCC2)C1 (mixture of isomers) [glycopyrrolate, glycopyrronium bromide]
M1 Hill slope ([1]; Table 1): (1.37 ± 0.20)
M1 Hill slope ([1]; Table 6): (1.37 ± 0.20)
M2 Hill slope ([2]; Table 1, numbers in parentheses): (0.99 ± 0.11)
M2 Hill slope [2, 8]: (0.99 ± 0.11)
M3 Hill slope ([3]; Table 1): (1.14 ± 0.25)
M3 Hill slope ([3]; Table 6): (1.14 ± 0.25)
M4 Hill slope ([4]; Table 1): (1.02 ± 0.01)
M4 Hill slope ([4]; Table 6): (1.02 ± 0.01)
pKi (range over M1-M4) [5]: 8.7-9.9

CN1[C@@H]2CC[C@H]1C[C@@H](OC(=O)C(CO)c1ccccc1)C2 (stereo partly shown) [Atropine]
t1/5 offset [6]: 10 min
t1/5 onset [6]: 2.5 min

C[N+]1(CC(=O)[O-])[C@@H]2C[C@@H](OC(=O)C(O)(c3cccs3)c3cccs3)C[C@H]1[C@@H]1O[C@@H]12 (stereo partly drawn) [Compound (aa), 6β,7β-epoxy-3β-hydroxy-8-carboxymethyl-8-methyl-1αH,5αH-tropanium, di-2-thienylglycolate inner salt]
t1/5 onset [6, 9]: 0.9 min
t1/5 offset [6, 10]: 27 min

CCOC(=O)C[N+]1(C)[C@@H]2C[C@@H](OC(=O)C(O)(c3cccs3)c3cccs3)C[C@H]1[C@@H]1O[C@@H]12 (stereo partly drawn) [Compound (w), 6β,7β-epoxy-3β-hydroxy-8-ethoxycarbonylmethyl-8-methyl-1αH,5αH-tropanium bromide, di-2-thienylglycolate]
pA2 ([7]; antagonism against carbachol, isolated guinea pig tracheal rings, four animals): 8.82
t1/5 onset [6, 9]: 0.6 min
t1/5 offset [6, 10]: 60 min

CC(C)[N+]1(C)[C@@H]2CC[C@H]1CC(OC(=O)C(CO)c1ccccc1)C2.[Br-] (stereo partly shown) [Ipratropium Br, ipratropium bromide]
pA2 [7]: 9.18
t1/5 onset [6]: 3.0 min

C[N+]1(C)[C@@H]2C[C@@H](OC(=O)C(O)(c3cccs3)c3cccs3)C[C@H]1[C@@H]1O[C@@H]12 [Tiotropium]
t1/5 offset [6]: >360 min
t1/5 onset [6]: 8.0 min

C[N+]1(C)[C@@H]2C[C@@H](OC(=O)[C@H](CO)c3ccccc3)C[C@H]1[C@@H]1O[C@@H]12 [scopolamine methyl bromide, scopolamine methylbromide]
M2 Hill slope [2]: (1.02 ± 0.02)
